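Test compounds were applied to cells in 96-well plates for 48 hours at 5 doses. GI50: concentration for 50% inhibition of growth.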 Active and inactive are the calls of the source. No stated cut-off is given here; in the data, active = GI50 up to about 1.1 µM and inactive = higher.
Columns and labels:
Assay in all cases: inhibition of tumour cell growth, NCI panel, 48 h
[1] = system: 786-0
[2] = system: A549
[3] = system: HCT-116
[4] = system: Hs-578T
[5] = system: K562
[6] = system: LOX IMVI
[7] = system: MCF7
[8] = system: MDA-MB-231
[9] = system: OVCAR-4
[10] = system: OVCAR-8
[11] = system: PC-3
[12] = system: RXF 393
[13] = system: SN12C
[14] = system: SNB-19
[15] = system: SNB-75
[16] = system: U-251
[17] = system: UACC-257
[18] = system: UACC-62
[19] = system: UO-31

NC1N=C(c2ccc(Cl)cc2)C2=C(N1)c1ccccc1CC2 (configuration not stated)
GI50 [1]: 13.2 µM (inactive)
GI50 [2]: 20.3 µM (inactive)
GI50 [3]: 8.39 µM (inactive)
GI50 [4]: 8.71 µM (inactive)
GI50 [5]: 3.48 µM (inactive)
GI50 [6]: 4.13 µM (inactive)
GI50 [7]: 6.55 µM (inactive)
GI50 [8]: 10.5 µM (inactive)
GI50 [9]: 13.4 µM (inactive)
GI50 [10]: 25.6 µM (inactive)
GI50 [11]: 23.1 µM (inactive)
GI50 [12]: 7.96 µM (inactive)
GI50 [13]: 19.9 µM (inactive)
GI50 [14]: > 68.5 µM (inactive)
GI50 [15]: 1.71 µM (inactive)
GI50 [16]: 25.6 µM (inactive)
GI50 [17]: > 67.3 µM (inactive)
GI50 [18]: 15 µM (inactive)
GI50 [19]: 32.7 µM (inactive)

N#CC1=C(N)OC(c2cccc([N+](=O)[O-])c2)C1(C#N)C#N (configuration not stated)
GI50 [1]: 14.9 µM (inactive)
GI50 [2]: 34.8 µM (inactive)
GI50 [3]: 15.2 µM (inactive)
GI50 [4]: 84.3 µM (inactive)
GI50 [5]: 26.2 µM (inactive)
GI50 [6]: 15.1 µM (inactive)
GI50 [7]: 20.8 µM (inactive)
GI50 [8]: > 10 µM (inactive)
GI50 [10]: 29.4 µM (inactive)
GI50 [11]: 23.7 µM (inactive)
GI50 [12]: 20 µM (inactive)
GI50 [13]: 33.2 µM (inactive)
GI50 [14]: 21.8 µM (inactive)
GI50 [15]: 0.78 µM (active)
GI50 [16]: 39.9 µM (inactive)
GI50 [17]: 17 µM (inactive)
GI50 [18]: 26.6 µM (inactive)
GI50 [19]: 17.9 µM (inactive)

O=C1/C(=C/c2ccco2)N=C2Sc3c([nH]cnc3=O)N12
GI50 [1]: > 100 µM (inactive)
GI50 [2]: > 100 µM (inactive)
GI50 [3]: > 100 µM (inactive)
GI50 [4]: > 100 µM (inactive)
GI50 [5]: > 100 µM (inactive)
GI50 [6]: > 100 µM (inactive)
GI50 [7]: > 100 µM (inactive)
GI50 [8]: > 100 µM (inactive)
GI50 [9]: 44.4 µM (inactive)
GI50 [10]: > 100 µM (inactive)
GI50 [11]: > 100 µM (inactive)
GI50 [12]: > 100 µM (inactive)
GI50 [13]: > 100 µM (inactive)
GI50 [14]: > 100 µM (inactive)
GI50 [15]: > 100 µM (inactive)
GI50 [16]: > 100 µM (inactive)
GI50 [17]: > 100 µM (inactive)
GI50 [19]: > 100 µM (inactive)

O=C(CC(=O)Nc1ccccc1Cl)NNC(Sc1ccccc1)c1cc(/N=N/c2ccc(Br)cc2)ccc1O (configuration not stated)
GI50 [1]: 0.653 µM (active)
GI50 [2]: 3.08 µM (inactive)
GI50 [3]: 0.387 µM (active)
GI50 [4]: 3.13 µM (inactive)
GI50 [5]: 2.31 µM (inactive)
GI50 [6]: 0.927 µM (active)
GI50 [7]: 0.681 µM (active)
GI50 [8]: 2.22 µM (inactive)
GI50 [9]: 1.86 µM (inactive)
GI50 [10]: 0.598 µM (active)
GI50 [11]: 0.571 µM (active)
GI50 [12]: 1.53 µM (inactive)
GI50 [13]: 2.22 µM (inactive)
GI50 [14]: 4.06 µM (inactive)
GI50 [15]: 4.8 µM (inactive)
GI50 [16]: 1.59 µM (inactive)
GI50 [17]: 2.37 µM (inactive)
GI50 [18]: 1.17 µM (inactive)
GI50 [19]: 1.14 µM (inactive)

O=C(CN1C(=O)c2ccccc2C1=O)OCC1CCCN2CCCCC12 (configuration not stated)
GI50 [1]: > 100 µM (inactive)
GI50 [2]: > 100 µM (inactive)
GI50 [3]: > 100 µM (inactive)
GI50 [4]: > 100 µM (inactive)
GI50 [5]: > 100 µM (inactive)
GI50 [6]: > 100 µM (inactive)
GI50 [7]: > 100 µM (inactive)
GI50 [8]: > 100 µM (inactive)
GI50 [9]: > 100 µM (inactive)
GI50 [10]: > 100 µM (inactive)
GI50 [11]: > 100 µM (inactive)
GI50 [12]: > 100 µM (inactive)
GI50 [13]: > 100 µM (inactive)
GI50 [14]: > 100 µM (inactive)
GI50 [15]: > 100 µM (inactive)
GI50 [16]: > 100 µM (inactive)
GI50 [17]: > 100 µM (inactive)
GI50 [18]: > 100 µM (inactive)
GI50 [19]: > 100 µM (inactive)

Cc1ccc(N(Cc2ccccc2)Cc2ccccc2)cc1
GI50 [1]: 73.3 µM (inactive)
GI50 [2]: 36.9 µM (inactive)
GI50 [3]: 28.6 µM (inactive)
GI50 [4]: 40.5 µM (inactive)
GI50 [5]: 55.8 µM (inactive)
GI50 [6]: 34 µM (inactive)
GI50 [7]: 37.8 µM (inactive)
GI50 [8]: > 100 µM (inactive)
GI50 [9]: 32.7 µM (inactive)
GI50 [10]: > 100 µM (inactive)
GI50 [11]: 48.4 µM (inactive)
GI50 [12]: 59 µM (inactive)
GI50 [13]: 72.3 µM (inactive)
GI50 [14]: > 100 µM (inactive)
GI50 [15]: 68.7 µM (inactive)
GI50 [16]: 65.9 µM (inactive)
GI50 [17]: 42.4 µM (inactive)
GI50 [18]: 82.4 µM (inactive)
GI50 [19]: 48.4 µM (inactive)
